Measurements taken from the NIST ThermoML archive (doi:10.1021/acs.jced.7b00002).

Legend:
[1] = 97.6 kPa, Liquid; for viscosity: Capillary tube (Ostwald / Ubbelohde) method; for mass density: Vibrating tube method
[2] = xn = mol fraction of the nth substance listed; details: 97.6 kPa, Liquid, x2 = 0; for viscosity: Capillary tube (Ostwald / Ubbelohde) method; for mass density: Vibrating tube method

CN(C)C=O [dimethylformamide]
[1]
Details	mass density [kg/m3]	viscosity [mPa·s]
303.15 K	939.18	0.77
308.15 K	934.41	0.72
313.15 K	929.64	0.68
318.15 K	924.86	0.65
323.15 K	920.07	0.62
328.15 K	915.26	0.59
333.15 K	910.44	0.56
338.15 K	905.6	0.54
343.15 K	900.74	0.51
348.15 K	895.87	0.49
353.15 K	890.98	0.47

CC(=O)N(C)C [N,N-dimethylethanamide]
[1]
Details	mass density [kg/m3]	viscosity [mPa·s]
303.15 K	931.85	0.89
308.15 K	927.26	0.83
313.15 K	922.66	0.78
318.15 K	918.06	0.74
323.15 K	913.44	0.7
328.15 K	908.81	0.66
333.15 K	904.16	0.63
338.15 K	899.53	0.6
343.15 K	894.87	0.57
348.15 K	890.19	0.54
353.15 K	885.51	0.52

c1ccncc1 [pyridine]
[1]
Details	mass density [kg/m3]	viscosity [mPa·s]
303.15 K	973.09	0.84
308.15 K	968.06	0.79
313.15 K	963.02	0.74
318.15 K	957.97	0.7
323.15 K	952.9	0.66
328.15 K	947.82	0.62
333.15 K	942.72	0.59
338.15 K	937.6	0.56
343.15 K	932.46	0.53
348.15 K	927.3	0.51
353.15 K	922.12	0.48

C[S+](C)[O-] [dimethyl sulfoxide]
[1]
Details	mass density [kg/m3]	viscosity [mPa·s]
303.15 K	1090.29	1.8
308.15 K	1085.28	1.66
313.15 K	1080.3	1.53
318.15 K	1075.31	1.41
323.15 K	1070.32	1.3
328.15 K	1065.33	1.21
333.15 K	1060.34	1.13
338.15 K	1055.34	1.06
343.15 K	1050.35	0.99
348.15 K	1045.34	0.93
353.15 K	1040.33	0.88

CN(C)C=O [dimethylformamide] + CCCCCCCC[n+]1ccn(C)c1.[Cl-]
[2]
Details	mass density [kg/m3]	viscosity [mPa·s]
303.15 K	939.18	0.77
308.15 K	934.41	0.72
313.15 K	929.64	0.68
318.15 K	924.86	0.65
323.15 K	920.07	0.62
328.15 K	915.26	0.59
333.15 K	910.44	0.56
338.15 K	905.6	0.54
343.15 K	900.74	0.51
348.15 K	895.87	0.49
353.15 K	890.98	0.47
